# According to ChEMBL document CHEMBL2074135, “Recognition of L-amino acid ester compounds by rat peptide transporters PEPT1 and PEPT2” (J Pharmacol Exp Ther, 1999):
# Values joined by “and” are separate entries in the source; they are usually repeats but may differ in a detail not shown here. Identical values can stand only once.
# B1: Solute carrier family 15 member 2 (Rattus norvegicus), Q63424 (protein)
# chain: MNPFQKNESKETLFSPVSTEEMLPRPPSPPKKSPPKIFGSSYPVSIAFIVVNEFCERFSYYGMKAVLTLYFLYFLHWNEDTSTSVYHAFSSLCYFTPILGAAIADSWLGKFKTIIYLSLVYVLGHVFKSLGAIPILGGKMLHTILSLVGLSLIALGTGGIKPCVAAFGGDQFEEEHAEARTRYFSVFYLAINAGSLISTFITPMLRGDVKCFGQDCYALAFGVPGLLMVLALVVFAMGSKMYRKPPPEGNIVAQVIKCIWFALCNRFRNRSGDLPKRQHWLDWAAEKYPKHLIADVKALTRVLFLYIPLPMFWALLDQQGSRWTLQANKMNGDLGFFVLQPDQMQVLNPFLVLIFIPLFDLVIYRLISKCRINFSSLRKMAVGMILACLAFAVAALVETKINGMIHPQPASQEIFLQVLNLADGDVKVTVLGSRNNSLLVESVSSFQNTTHYSKLHLEAKSQDLHFHLKYNSLSVHNDHSVEEKNCYQLLIHQDGESISSMLVKDTGIKPANGMAAIRFINTLHKDLNISLDTDAPLSVGKDYGVSAYRTVLRGKYPAVHCETEDKVFSLDLGQLDFGTTYLFVITNITSQGLQAWKAEDIPVNKLSIAWQLPQYVLVTAAEVMFSVTGLEFSYSQAPSSMKSVLQAAWLLTVAVGNIIVLVVAQFSGLAQWAEFVLFSCLLLVVCLIFSVMAYYYVPLKSEDTREATDKQIPAVQGNMINLETKNTRL
# B2: Solute carrier family 15 member 1 (Rattus norvegicus), P51574 (protein)
# chain: MGMSKSRGCFGYPLSIFFIVVNEFCERFSYYGMRALLVLYFRNFLGWDDDLSTAIYHTFVALCYLTPILGALIADSWLGKFKTIVSLSIVYTIGQAVISVSSINDLTDHDHDGSPNNLPLHVALSMIGLALIALGTGGIKPCVSAFGGDQFEEGQEKQRNRFFSIFYLAINAGSLLSTIITPILRVQQCGIHSQQACYPLAFGVPAALMAVALIVFVLGSGMYKKFQPQGNIMGKVAKCIRFAIKNRFRHRSKAFPKRNHWLDWAKEKYDERLISQIKIMTKVMFLYIPLPMFWALFDQQGSRWTLQATTMTGKIGTIEIQPDQMQTVNAILIVIMVPIVDAVVYPLIAKCGFNFTSLKKMTVGMFLASMAFVVAAIVQVEIDKTLPVFPSGNQVQIKVLNIGNNDMAVYFPGKNVTVAQMSQTDTFMTFDVDQLTSINVSSPGSPGVTTVAHEFEPGHRHTLLVWGPNLYRVVKDGLNQKPEKGENGIRFVSTLNEMITIKMSGKVYENVTSHSASNYQFFPSGQKDYTINTTEIAPNCSSDFKSSNLDFGSAYTYVIRSRASDGCLEVKEFEDIPPNTVNMALQIPQYFLLTCGEVVFSVTGLEFSYSQAPSNMKSVLQAGWLLTVAIGNIIVLIVAEAGHFDKQWAEYVLFASLLLVVCIIFAIMARFYTYINPAEIEAQFDEDEKKKGVGKENPYSSLEPVSQTNM
# Assays:
# Type in all cases: functional, cell-based
# [1] = target: T1, Solute carrier family 15 member 1 (Rattus norvegicus) (UniProt P51574); assay: TP_TRANSPORTER: inhibition of Gly-Sar uptake (Gly-Sar: 20 uM, Ser-OMe: 10000 uM) in PEPT1-expressing LLC-PK1 cells
# T1 sequence (whole entry): B2 chain
# [2] = target: T2, Solute carrier family 15 member 2 (Rattus norvegicus) (UniProt Q63424); assay: TP_TRANSPORTER: inhibition of Gly-Sar uptake (Gly-Sar: 20 uM, Val-tBu: 10000 uM) in PEPT2-expressing LLC-PK1 cells
# T2 sequence (whole entry): B1 chain
# [3] = target: T1, Solute carrier family 15 member 1 (Rattus norvegicus); assay: TP_TRANSPORTER: inhibition of Gly-Sar uptake (Gly-Sar: 20 uM, Val-tBu: 10000 uM) in PEPT1-expressing LLC-PK1 cells
# [4] = target: T1, Solute carrier family 15 member 1 (Rattus norvegicus); assay: TP_TRANSPORTER: inhibition of Gly-Sar uptake (Gly-Sar: 20 uM, Leu-OMe: 10000 uM) in PEPT1-expressing LLC-PK1 cells
# [5] = target: T2, Solute carrier family 15 member 2 (Rattus norvegicus); assay: TP_TRANSPORTER: inhibition of Gly-Sar uptake (Gly-Sar: 20 uM, Leu-OMe: 10000 uM) in PEPT2-expressing LLC-PK1 cells
# [6] = target: T2, Solute carrier family 15 member 2 (Rattus norvegicus); assay: TP_TRANSPORTER: inhibition of Gly-Sar uptake (Gly-Sar: 20 uM, Tyr-OMe: 10000 uM) in PEPT2-expressing LLC-PK1 cells
# [7] = target: T1, Solute carrier family 15 member 1 (Rattus norvegicus); assay: TP_TRANSPORTER: inhibition of Gly-Sar uptake (Gly-Sar: 20 uM, Val-OBzl: 10000 uM) in PEPT1-expressing LLC-PK1 cells
# [8] = target: T2, Solute carrier family 15 member 2 (Rattus norvegicus); assay: TP_TRANSPORTER: inhibition of Gly-Sar uptake (Gly-Sar: 20 uM, Val-OBzl: 10000 uM) in PEPT2-expressing LLC-PK1 cells
# [9] = target: T3, Solute carrier family 15 member 1 (Rattus norvegicus, UniProt P51574); assay: TP_TRANSPORTER: inhibition of Gly-Sar uptake in PEPT1-expressing LLC-PK1 cells
# T3 sequence (P51574 whole entry): B2 chain
# [10] = target: T4, Solute carrier family 15 member 2 (Rattus norvegicus, UniProt Q63424); assay: TP_TRANSPORTER: inhibition of Gly-Sar uptake in PEPT2-expressing LLC-PK1 cells
# T4 sequence (Q63424 whole entry): B1 chain
# [11] = target: T1, Solute carrier family 15 member 1 (Rattus norvegicus); assay: TP_TRANSPORTER: inhibition of Gly-Sar uptake (Gly-Sar: 20 uM, Ile-OMe: 10000 uM) in PEPT1-expressing LLC-PK1 cells
# [12] = target: T2, Solute carrier family 15 member 2 (Rattus norvegicus); assay: TP_TRANSPORTER: inhibition of Gly-Sar uptake (Gly-Sar: 20 uM, Ile-OMe: 10000 uM) in PEPT2-expressing LLC-PK1 cells
# [13] = target: T1, Solute carrier family 15 member 1 (Rattus norvegicus); assay: TP_TRANSPORTER: inhibition of Gly-Sar uptake (Gly-Sar: 20 uM, Gly-OMe: 10000 uM) in PEPT1-expressing LLC-PK1 cells
# [14] = target: T2, Solute carrier family 15 member 2 (Rattus norvegicus); assay: TP_TRANSPORTER: inhibition of Gly-Sar uptake (Gly-Sar: 20 uM, Gly-OMe: 10000 uM) in PEPT2-expressing LLC-PK1 cells
# [15] = target: T1, Solute carrier family 15 member 1 (Rattus norvegicus); assay: TP_TRANSPORTER: inhibition of Gly-Sar uptake (Gly-Sar: 20 uM, Val-OEt: 10000 uM) in PEPT1-expressing LLC-PK1 cells
# [16] = target: T2, Solute carrier family 15 member 2 (Rattus norvegicus); assay: TP_TRANSPORTER: inhibition of Gly-Sar uptake (Gly-Sar: 20 uM, Val-OEt: 10000 uM) in PEPT2-expressing LLC-PK1 cells
# [17] = target: T2, Solute carrier family 15 member 2 (Rattus norvegicus); assay: TP_TRANSPORTER: inhibition of Gly-Sar uptake (Gly-Sar: 20 uM, Ala-OMe: 10000 uM) in PEPT2-expressing LLC-PK1 cells
# [18] = target: T1, Solute carrier family 15 member 1 (Rattus norvegicus); assay: TP_TRANSPORTER: inhibition of Gly-Sar uptake (Gly-Sar: 20 uM, Ala-OMe: 10000 uM) in PEPT1-expressing LLC-PK1 cells
# [19] = substrate: CN(CC(=O)O)C(=O)CN; assay: TP_TRANSPORTER: uptake in PEPT2-expressing LLC-PK1 cells
# [20] = substrate: CN(CC(=O)O)C(=O)CN; assay: TP_TRANSPORTER: uptake in PEPT1-expressing LLC-PK1 cells
molecule,measurement,setting,value
COC(=O)[C@@H](N)CO,Activity,[1],inhibitor [+]
CC(C)[C@H](N)C(=O)OC(C)(C)C,Activity,[2],inhibitor [+]
same,Activity,[3],inhibitor [+]
COC(=O)[C@@H](N)CC(C)C,Activity,[4],inhibitor [+]
same,Activity,[5],inhibitor [+]
COC(=O)[C@@H](N)Cc1ccc(O)cc1,Activity,[6],inhibitor [+]
CC(C)[C@H](N)C(=O)OCc1ccccc1,Activity,[7],inhibitor [+]
same,Activity,[8],inhibitor [+]
CC(C)[C@H](N)C(=O)OCCOCn1cnc2c(=O)[nH]c(N)nc21 [VALACYCLOVIR],Ki,[9],2500 µM and 2700 µM
same,Ki,[10],220 µM
same,Ki,[10]; llc-pk1,220 µM
COC(=O)[C@@H](N)C(C)C,Ki,[9],3600 µM
same,Ki,[10],830 µM
CC[C@H](C)[C@H](N)C(=O)OC,Activity,[11],inhibitor [+]
same,Activity,[12],inhibitor [+]
COC(=O)CN,Activity,[13],inhibitor [+]
same,Activity,[14],inhibitor [+]
CCOC(=O)[C@@H](N)C(C)C,Activity,[15],inhibitor [+]
same,Activity,[16],inhibitor [+]
COC(=O)[C@H](C)N,Activity,[17],inhibitor [+]
same,Activity,[18],inhibitor [+]
B1,Km,[19],90 µM
B2,Km,[20],1900 µM
